Columns and labels:
CD-1 mice [1] = test system: CD-1 mice; set-up: method as in PMID 25769232, PMID 25987201; conditions: ED50 + SEM, data elaborated from ref [33],[34]; cited from earlier work
mouse CB2 receptors = target: T1, mouse CB2 receptors (Mus musculus, UniProt P47936); set-up: method as in PMID 27527584, PMID 25769232; conditions: read-out: Mouse Spleen Membranes CB2 Ki; [3H]-CP-55,940 competition binding; mean ± SEM; data elaborated from ref [15],[33]; cited from earlier work
T1 construct: membranes from the mouse brain and spleen were used, respectively; from tissue; host or cells: mouse spleen membranes, CD-1 mice
T1 sequence (P47936 whole entry): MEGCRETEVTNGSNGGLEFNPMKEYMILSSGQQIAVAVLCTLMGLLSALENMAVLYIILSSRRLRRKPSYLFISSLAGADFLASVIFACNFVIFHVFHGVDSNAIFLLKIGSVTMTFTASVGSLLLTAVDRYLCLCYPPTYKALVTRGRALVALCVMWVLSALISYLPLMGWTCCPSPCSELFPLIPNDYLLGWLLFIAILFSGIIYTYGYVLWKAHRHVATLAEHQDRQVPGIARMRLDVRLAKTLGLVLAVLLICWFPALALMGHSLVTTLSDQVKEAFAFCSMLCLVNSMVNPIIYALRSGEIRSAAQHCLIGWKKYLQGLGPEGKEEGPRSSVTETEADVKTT

CD-1 mice [2] = test system: CD-1 mice; set-up: method as in PMID 25769232, PMID 25987201; conditions: ED50 + SEM, data elaborated from ref [33],[34]; cited from earlier work; remark: listed apart in the source
CD-1 mice [3] = test system: CD-1 mice; set-up: method as in PMID 25769232, PMID 25987201; conditions: ED50 + SEM, data elaborated from ref [33],[34]; cited from earlier work; remark: listed apart in the source
CD-1 mice [4] = test: Breath rate evaluation; format: in vivo, mouse
CD-1 mice [5] = test: Tail pinch test (acute mechanical nociception); format: in vivo, mouse
Method: The motor responses of the animal to different visual and acoustic stimuli were evaluated according to the procedure described in our previous studies. To reduce the number of animals used, mice were evaluated in functional observational tests carried out in a consecutive manner according to the following time scheme: Observation of visual object and acoustic responses and breath rate were measured at 0, 10, 30, 60, 120, 180, 240, and 300 min after injections. Visual placing response was measured at 0, 15, 35, 70, 125, 185, 245, and 305 min after injection. Core temperature was measured at 25, 45, 85, 140, 200, 260, and 320 min after injection. The tail pinch test was measured at 35, 55, 90, 145, 205, 265, and 325 min after injection, and the valuation of number of steps in the drag test was measured at 45, 75, 105, 160, 220, 280, and 340 min after injection.
The tail pinch test is used for evaluating acute mechanical nociception. A special rigid probe connected to a digital dynamometer (ZP-50N, 441-8077, Toyohashi, Aichi, Japan) was gently placed on the tail (in the distal portion), and progressive pressure was applied. When the […] flicked its tail, the pressure was stopped, and the digital instrument saved the maximum peak of weight supported (g/force). A cut-off (500 g/force) was set to avoid tissue damage. The test was repeated three times, and the final value was calculated with the average of three obtained scores.
Data are expressed in arbitrary units (visual objects and acoustic responses) and percentage of baseline (visual placing response, breath rate, and drag test). Core temperature values were expressed as the difference between control temperature (before injection) and temperature following drug administration (Δ °C). Antinociception (tail pinch tests) was calculated as percentage of maximal possible effect:EMax% = [(test − control latency)/(cut off time − control)] × 100
All data are shown as mean ± SEM of 8 independent experimental replications. […] ED50 (dose of agonist to obtain 50% of the overall mean effect) values were calculated by non-linear regression analysis of dose–response data performed using Prism software (GraphPad Prism, San Diego, CA, USA). The calculation of JWH-018 ED50 values was based on the results of previous studies. Curves have been compared, when possible, performing the F test (curve comparison). All statistical analysis was performed using the program Prism 8.0 software (GraphPad Prism, San Diego, CA, USA).

CD-1 mice [6] = test: Visual object response test; format: in vivo, mouse
human CB2 receptors = target: T2, human CB2 receptors (Homo sapiens, UniProt P34972); test: [3H]-CP-55,940 competition binding, CHO cell membranes transfected with human CB2 receptors
T2 construct: host or cells: CHO cells
T2 sequence (P34972 whole entry): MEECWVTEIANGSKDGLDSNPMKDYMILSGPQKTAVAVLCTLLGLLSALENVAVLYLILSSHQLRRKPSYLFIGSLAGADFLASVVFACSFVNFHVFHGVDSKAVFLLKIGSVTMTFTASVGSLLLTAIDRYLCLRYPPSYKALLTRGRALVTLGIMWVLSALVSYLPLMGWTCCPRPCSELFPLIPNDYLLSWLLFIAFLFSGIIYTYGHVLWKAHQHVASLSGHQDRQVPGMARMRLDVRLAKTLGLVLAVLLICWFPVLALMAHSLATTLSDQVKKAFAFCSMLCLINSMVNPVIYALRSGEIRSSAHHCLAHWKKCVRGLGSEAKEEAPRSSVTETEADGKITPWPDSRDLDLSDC
Method: To obtain membranes, cells were washed with phosphate-buffered saline (PBS) and scraped off with ice-cold hypotonic buffer (5 mM Tris HCl, 2 mM EDTA, pH 7.4). The cell suspension was homogenized with a Polytron and then centrifuged for 30 min at 40,000× g. The membrane pellet was suspended in 50 mM Tris HCl buffer (pH 7.4) containing 2.5 mM ethylenediaminetetraacetic acid (EDTA), 5 mM MgCl2, and 0.5 mg/mL bovine serum albumin (BSA) for CB1 receptors or in 50 mM Tris HCl (pH 7.4), 1 mM EDTA, 5 mM MgCl2, and 0.5% BSA for CB2 receptors.
For human cannabinoid receptors, membranes obtained from CHO cells transfected with human CB1 or CB2 receptors (2 µg protein/100 µL) were used. […] Bound and free radioactivity were separated by filtering the assay mixture through Whatman GF/C glass fiber filters using a Brandel cell harvester (Brandel Instruments, Unterföhring, Germany).
The protein concentration was determined according to a Bio-Rad method with bovine serum albumin as a reference standard. Inhibitory binding constants, Ki, were calculated from the IC50 values according to the Cheng and Prusoff equation:Ki = IC50/(1 + [C*]/KD*) where [C*] is the concentration of the radioligand and KD* its dissociation constant. Functional experiments were analyzed by non-linear regression analysis using the equation for a sigmoid concentration–response curve (GraphPad Prism, San Diego, CA, USA). […]

[7] = 0.01–30 mg/kg i.p., monitored over 5 h
[8] = Mus musculus, ip, mice, ED50 + SEM

| SMILES | ED50 Tail Pinch (CD-1 mice [1]) [mg/kg] | Ki (mouse CB2 receptors) [nM] | ED50 Visual Object (CD-1 mice [2]) [mg/kg] | ED50 Core Temperature (CD-1 mice [3]) [mg/kg] | effect on breath rate (CD-1 mice [4]; [7]) | ED50 (CD-1 mice [4]; [8]) [mg/kg] | dose at which inhibitory effect on breath rate was significant (CD-1 mice [4]; i.p., after 120 min, persisted up to 5 h) [mg/kg] | effect on threshold to acute mechanical pain stimulus (tail pinch) (CD-1 mice [5]; [7]) | ED50 (CD-1 mice [5]; [8]) [mg/kg] | lowest dose from which increased pain threshold to acute mechanical stimulus was observed (CD-1 mice [5]; i.p.) [mg/kg] | time of maximum analgesic effect (tail pinch) (CD-1 mice [5]; maximum dose of 30 mg/kg i.p.) [min] | effect on visual object response (CD-1 mice [6]; [7]) | ED50 (CD-1 mice [6]; Mus musculus, ip, mice, ED50 + SEM, non-linear regression) [mg/kg] | Ki (human CB2 receptors) [nM] |
| --- | --- | --- | --- | --- | --- | --- | --- | --- | --- | --- | --- | --- | --- | --- |
| CCCCCn1cc(C(=O)c2cccc3ccccc23)c2ccccc21 [JWH-018, 1-naphthalenyl(1-pentyl-1H-indol-3-yl)-methanone] | 1.8 ± 0.11 | 7.13 ± 0.53 | 0.32 ± 0.06 | 1.7 ± 0.04 |  |  |  |  |  |  |  |  |  |  |
| CCCCCn1cc(Cc2cccc3ccccc23)c2ccccc21 [JWH-175, 3-(1-naphthalenylmethyl)-1-pentyl-1H-indole] |  |  |  |  | dose-dependently reduced the breath rate | 1.7 ± 0.15 | 0.1 | dose-dependently increased the threshold to acute mechanical pain stimulus | 4 ± 0.12 | 0.1 | 265 | dose-dependently reduced the visual object response | 9.6 ± 0.02 | 363 ± 31 |
